Experimental data reported in publication PMC7182439 (Cell, 2019).

Key:
SpCas9 [1] = biological target: T1, SpCas9 (Streptococcus pyogenes, UniProt Q99ZW2); experiment: in vitro DNA cleavage assay; assay type: biochemical
SpCas9 [2] = biological target: T1, SpCas9; experiment: eGFP-disruption assay; assay type: cell-based

T1 sequence (Q99ZW2 whole entry): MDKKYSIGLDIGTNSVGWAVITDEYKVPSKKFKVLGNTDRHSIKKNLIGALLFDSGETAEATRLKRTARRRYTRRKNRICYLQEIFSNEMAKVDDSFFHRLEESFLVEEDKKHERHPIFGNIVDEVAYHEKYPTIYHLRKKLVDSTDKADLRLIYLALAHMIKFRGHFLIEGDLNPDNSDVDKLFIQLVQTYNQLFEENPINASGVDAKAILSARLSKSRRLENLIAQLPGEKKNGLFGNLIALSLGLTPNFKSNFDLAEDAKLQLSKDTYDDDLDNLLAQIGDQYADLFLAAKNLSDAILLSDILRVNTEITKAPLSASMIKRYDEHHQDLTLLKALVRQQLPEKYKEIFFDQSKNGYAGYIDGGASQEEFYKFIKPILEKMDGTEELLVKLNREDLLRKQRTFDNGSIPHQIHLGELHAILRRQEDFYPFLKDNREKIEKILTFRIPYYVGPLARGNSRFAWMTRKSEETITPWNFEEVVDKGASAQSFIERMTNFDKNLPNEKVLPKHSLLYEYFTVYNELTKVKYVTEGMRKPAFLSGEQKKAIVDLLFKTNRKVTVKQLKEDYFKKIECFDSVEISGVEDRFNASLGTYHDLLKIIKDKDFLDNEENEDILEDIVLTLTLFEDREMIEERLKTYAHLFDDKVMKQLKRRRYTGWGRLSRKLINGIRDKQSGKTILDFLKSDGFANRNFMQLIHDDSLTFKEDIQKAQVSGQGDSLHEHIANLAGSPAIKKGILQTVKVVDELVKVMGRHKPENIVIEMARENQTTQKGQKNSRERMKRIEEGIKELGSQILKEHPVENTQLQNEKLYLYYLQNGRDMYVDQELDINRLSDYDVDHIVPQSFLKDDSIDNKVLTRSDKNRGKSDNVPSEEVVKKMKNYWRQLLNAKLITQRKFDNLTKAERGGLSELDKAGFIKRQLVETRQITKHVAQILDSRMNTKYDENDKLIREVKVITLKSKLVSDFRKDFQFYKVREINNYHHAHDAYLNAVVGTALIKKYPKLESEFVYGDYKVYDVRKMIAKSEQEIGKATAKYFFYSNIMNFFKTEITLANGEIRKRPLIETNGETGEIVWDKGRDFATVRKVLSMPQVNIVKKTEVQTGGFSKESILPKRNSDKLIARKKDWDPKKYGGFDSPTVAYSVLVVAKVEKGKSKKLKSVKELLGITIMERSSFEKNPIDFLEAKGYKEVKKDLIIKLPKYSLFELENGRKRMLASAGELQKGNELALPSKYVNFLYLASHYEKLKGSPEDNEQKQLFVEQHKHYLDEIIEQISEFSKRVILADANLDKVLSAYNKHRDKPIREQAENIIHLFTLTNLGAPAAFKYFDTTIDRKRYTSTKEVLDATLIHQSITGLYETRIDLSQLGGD

| Structure (SMILES) | IC50 (SpCas9 [1]) | EC50 (SpCas9 [2]) |
| --- | --- | --- |
| Cc1ccc(S(=O)(=O)N2CC[C@@H]3[C@H](CO)Nc4ccc(-c5ccccc5F)cc4[C@@H]32)cc1 [BRD0539] | 22 µM |  |
| COc1cccc(-c2ccc3c(c2)[C@H]2[C@H](CCN2C(=O)Cc2ccncc2)[C@H](CO)N3C)c1 [BRD3433] |  | 9.3 µM |
